# What was measured:
# BMDMs [1] = assay type: cell-based, mouse; conditions: zVAD 20 μM
# Description: Cell death assays. Cell viability and Caspase 3/7 activity were measured using CellTiter Glo (G7571, Promega) or CaspaseGlo 3/7 (G8091, Promega) respectively, according to the manufacturer's protocol, with modification.
# Cell death assays. Cell viability and Caspase 3/7 activity were measured using CellTiter Glo (G7571, Promega) or CaspaseGlo 3/7 (G8091, Promega) respectively, according to the manufacturer's protocol, with modification. Briefly, 3.0×10^5 BMDMs/well were plated in 24-well plates and infected at an MOI of 0.1 for 1 h in serum-free media. Media was replaced with complete media, or for addition of chemical inhibitors, viral inoculum was replaced with completed BMM media containing indicated concentration of inhibitors. Infected BMDMs were incubated for 24h at 37° C./5% CO2. BMDMs were washed twice with 1×PBS and lysed with 100 μL Glo reagent/medium mixture (1:1). 50 μL of cell lysate was used for measuring the luminescence signal. Standard deviation and unpaired t test were performed on technical triplicates and data are representative of three independent experiments. Graphs of cell viability were generated using Prism 7 software (GraphPad Software, Inc.).
# BMDMs [2] = assay type: cell-based, mouse; conditions: N15m1-infected BMDMs, MOI 0.1, 18 hpi; zVAD 20 μM, C16 1 μM
# Description: Bioanalyzer RNA analysis. Equal amounts of total RNA purified from BMDMs were analyzed on an Agilent 2100 Bioanalyzer using RNA Nano LabChips.
substance,measurement,setting,value
zVAD,prevention of virus-induced cell death by inhibitor,"BMDMs [1]; N15m1-infected BMDMs, 24 hpi, Nec-1 25 μM, VX-765 20 μM",prevented virus-induced cell death
same,effect of inhibitor on caspase 3/7 activation in N15m1-infected BMDMs,BMDMs [1]; C16 1 μM,inhibited by zVAD
same,effect of inhibitor on degradation of host rRNA,BMDMs [2],not inhibited

# From patent US11684667B2 (priority 2017, dated 2023)
